6 compounds from ChEMBL document CHEMBL3525936 (Drug Metab Dispos, 2012) can be followed below.

Data set [1] has as its system Liver microsome. Kind of data set: Drug metabolism in rat liver microsomes assessed as 1-(4-(4-fluoro-2-methyl-1H-indol-5-yloxy)-5-methylpyrrolo[1,2-f][1,2,4]triazin-6-yloxy)propan-2-one formation at 2 uM after 60 mins by LC/MS method in presence of 1 mM NADPH. In kind it is ADME.
Data set [2] can be described thus: Drug metabolism in monkey liver microsomes assessed as 1-(4-(4-fluoro-2-methyl-1H-indol-5-yloxy)-5-methylpyrrolo[1,2-f][1,2,4]triazin-6-yloxy)propan-2-one formation at 2 uM after 60 mins by LC/MS method in presence of 1 mM NADPH. In kind it is ADME, Macaca mulatta. As to conditions: rhesus monkey.
Data set [3] deals with Liver microsome. Kind of data set: Drug metabolism in human liver microsomes assessed as 1-(4-(4-fluoro-2-methyl-1H-indol-5-yloxy)-5-methylpyrrolo[1,2-f][1,2,4]triazin-6-yloxy)propan-2-one formation at 2 uM after 60 mins by LC/MS method in presence of 1 mM NADPH. It counts as ADME.
The test system of data set [4] is Liver microsome. Kind of data set: Drug metabolism in rat liver microsomes assessed as 1-(4-(4-fluoro-2-methyl-1H-indol-5-yloxy)-5-methylpyrrolo[1,2-f][1,2,4]triazin-6-yloxy)propan-2-one formation at 2 uM after 60 mins by LC/MS method in absence of NADPH. In kind it is ADME.
Data set [5] can be described thus: Drug metabolism in monkey liver microsomes assessed as 1-(4-(4-fluoro-2-methyl-1H-indol-5-yloxy)-5-methylpyrrolo[1,2-f][1,2,4]triazin-6-yloxy)propan-2-one formation at 2 uM after 60 mins by LC/MS method in absence of NADPH. In kind it is ADME, Macaca mulatta. As to conditions: rhesus monkey.
For data set [6], the system named is Liver microsome. Kind of data set: Drug metabolism in human liver microsomes assessed as 1-(4-(4-fluoro-2-methyl-1H-indol-5-yloxy)-5-methylpyrrolo[1,2-f][1,2,4]triazin-6-yloxy)propan-2-one formation at 2 uM after 60 mins by LC/MS method in absence of NADPH. In kind it is ADME.
The test system of data set [7] is Liver microsome. Nature of the data set: Drug level in rat liver microsomes assessed as compound formation treated with 2 uM [14C]brivanib alaninate after 60 mins by LC/MS method in presence of 1 mM NADPH. In kind it is ADME. As to conditions: 1 h.
A short description of data set [8]: Drug level in monkey liver microsomes assessed as compound formation treated with 2 uM [14C]brivanib alaninate after 60 mins by LC/MS method in presence of 1 mM NADPH. In kind it is ADME, Macaca mulatta. As to conditions: rhesus monkey, 1 h.
Data set [9] deals with Liver microsome. Nature of the data set: Drug level in human liver microsomes assessed as compound formation treated with 2 uM [14C]brivanib alaninate after 60 mins by LC/MS method in presence of 1 mM NADPH. It counts as ADME. As to conditions: 1 h.
Data set [10] in a line: Cmax in Sprague-Dawley rat plasma at 60 mg/kg, po administered as single dose via gavage by LC/MS analysis. Set-up: dose 60 mg/kg, route oral. In kind it is ADME, organism-based.
The nature of data set [11]: Tmax in Sprague-Dawley rat plasma at 60 mg/kg, po administered as single dose via gavage by LC/MS analysis. It counts as ADME, organism-based. Set-up: dose 60 mg/kg, route oral.
Data set [12] can be described thus: AUC (0 to t) in Sprague-Dawley rat plasma at 60 mg/kg, po administered as single dose via gavage by LC/MS analysis. In kind it is ADME, organism-based. Also noted: dose 60 mg/kg, route oral.
Data set [13] is described as follows: Cmax in cynomolgus monkey plasma at 10 mg/kg, po administered as single dose via gavage by LC/MS analysis. In kind it is ADME, organism-based, Macaca fascicularis. Set-up: dose 10 mg/kg, route oral.
Data set [14] in a line: Tmax in cynomolgus monkey plasma at 10 mg/kg, po administered as single dose via gavage by LC/MS analysis. In kind it is ADME, organism-based, Macaca fascicularis. Set-up: dose 10 mg/kg, route oral.
Data set [15] is described as follows: AUC (0 to t) in cynomolgus monkey plasma at 10 mg/kg, po administered as single dose via gavage by LC/MS analysis. In kind it is ADME, organism-based, Macaca fascicularis. Also noted: dose 10 mg/kg, route oral.
Data set [16] is described as follows: Cmax in healthy human plasma at 400 mg, po administered as single dose via gavage by LC/MS analysis. Also noted: dose 400 mg, route oral. It counts as ADME, organism-based.
The nature of data set [17]: Tmax in healthy human plasma at 400 mg, po administered as single dose via gavage by LC/MS analysis. It counts as ADME, organism-based.
Data set [18] can be described thus: AUC (0 to t) in healthy human plasma at 400 mg, po administered as single dose via gavage by LC/MS analysis. It counts as ADME, organism-based.
The subject of data set [19] is Liver cytosol. Kind of data set: Drug metabolism in human liver cytosol assessed as sulfate metabolite formation by Michaelis-Menten equation […]. In kind it is ADME.
Data set [20] relates to HUVEC. Kind of data set: Inhibition of VEGF-stimulated HUVEC cell proliferation assessed as 5-bromo-2-deoxyuridine incorporation. As to conditions: Homo sapiens. It counts as functional, cell-based.
The test system of data set [21] is HUVEC. Nature of the data set: Inhibition of FGF-stimulated HUVEC cell proliferation assessed as 5-bromo-2-deoxyuridine incorporation. It counts as functional, cell-based. As to conditions: Homo sapiens.
Data set [22] relates to HUVEC. Kind of data set: Inhibition of VEGF/FGF-stimulated HUVEC cell proliferation assessed as 5-bromo-2-deoxyuridine incorporation. It counts as functional, cell-based. As to conditions: Homo sapiens.
Data set [23] relates to Liver cytosol. Nature of the data set: Drug metabolism in rat liver cytosol assessed as sulfate metabolite formation by Michaelis-Menten equation […]. In kind it is ADME.
Data set [24] can be described thus: Drug metabolism in monkey liver cytosol assessed as sulfate metabolite formation by Michaelis-Menten equation […]. In kind it is ADME, Macaca mulatta. As to conditions: rhesus monkey.
Data set [25] in a line: Drug metabolism in monkey liver microsomes assessed as (R)-1-(4-(4-fluoro-2-methyl-1H-indol-5-yloxy)-5-methylpyrrolo[1,2-f][1,2,4]triazin-6-yloxy)propan-2-ol formation at 10 uM after 60 mins by LC/MS analysis in absence of NADPH. In kind it is ADME, Macaca mulatta. As to conditions: rhesus monkey.
Data set [26] has as its system Liver microsome. Kind of data set: Drug metabolism in human liver microsomes assessed as (R)-1-(4-(4-fluoro-2-methyl-1H-indol-5-yloxy)-5-methylpyrrolo[1,2-f][1,2,4]triazin-6-yloxy)propan-2-ol formation at 10 uM after 60 mins by LC/MS analysis in absence of NADPH. In kind it is ADME.
In data set [27] the test system is Liver microsome. Nature of the data set: Drug metabolism in rat liver microsomes assessed as (R)-1-(4-(4-fluoro-2-methyl-1H-indol-5-yloxy)-5-methylpyrrolo[1,2-f][1,2,4]triazin-6-yloxy)propan-2-ol formation at 10 uM after 60 mins by LC/MS analysis in absence of NADPH. In kind it is ADME.

Consider `Cc1cc2c(F)c(Oc3n[14cH]nn4cc(OC[C@@H](C)OC(=O)[C@H](C)N)c(C)c34)ccc2[nH]1`, for which the Drug metabolism result is listed as “metabolite_detected” in the data set on Liver microsome [1]; “metabolite_detected” in data set [2]; “metabolite_detected” in the data set with Liver microsome [3]; “metabolite_not_detected” in the data set on Liver microsome [4]; “metabolite_not_detected” in data set [5]; “metabolite_not_detected” in the data set with Liver microsome [6].
For `Cc1c(OC[C@@H](C)O)cn2ncnc(Oc3ccc4[nH]c(C(=O)O)cc4c3F)c12`, the Drug metabolism entry (in the data set with Liver microsome [7]; in data set [8]; with Liver microsome [9]) was “metabolite_detected” in each case.
For `CC(=O)COc1cn2ncnc(Oc3ccc4[nH]c(C)cc4c3F)c2c1C`, the Drug metabolism result (in the data set with Liver microsome [7]; in data set [8]; with Liver microsome [9]) was “metabolite_detected” throughout.
For `Cc1cc2c(F)c(Oc3ncnn4cc(OC[C@@H](C)O)c(C)c34)ccc2[nH]1` [BRIVANIB], the peak concentration (Cmax) in [10] was 3.5 µg/mL; in data set [13], 1.4 µg/mL; in data set [16], 3.5 µg/mL. The Tmax was 1 h in [11], 1 h in data set [14] and 2 h in data set [17]. Besides, the AUC(0-t) in data set [12] amounted to 7.6 µg·h/mL; in [15], 6.8 µg·h/mL; in data set [18] it was 21.8 µg·h/mL. Also, the Km (with Liver cytosol [19]; in the data set on Liver cytosol [23]; in data set [24]) was 0.7 µM each time. Besides, the IC50 with HUVEC [20] stood at 0.618 µM; in the data set on HUVEC [21], 0.695 µM; with HUVEC [22], 0.841 µM.
For the compound `Cc1c(OC[C@@H](C)O)cn2ncnc(Oc3ccc4[nH]c(CO)cc4c3F)c12`, the Drug metabolism result (in the data set with Liver microsome [7]; in [8]; in the data set on Liver microsome [9]) was “metabolite_detected” throughout.
On to `Cc1cc2c(F)c(Oc3ncnn4cc(OC[C@H](C)O)c(C)c34)ccc2[nH]1`, for which the Drug metabolism result (in data set [25]; in the data set with Liver microsome [26]; in the data set with Liver microsome [27]) was “metabolite_not_detected” each time. Moreover, the Michaelis-Menten constant (Km) (in the data set on Liver cytosol [19]; in the data set on Liver cytosol [23]; in data set [24]) was 0.7 µM in each case. The IC50 turned out to be 0.687 µM with HUVEC [20], 1.01 µM in the data set with HUVEC [21] and 0.807 µM in the data set on HUVEC [22].
